Results: publication PMC11637483, “Dissecting caspase-2-mediated cell death: from intrinsic PIDDosome activation to chemical modulation” (Protein & Cell, 2024)
Read-outs that look alike come from different tables or passages of the source.

Columns and labels:
[1] = system: HeLa-CASP2/CASP3/GSDMD TKO + CASP2 cells (human caspase-2); assay: ATP-based cell viability (CellTiter-Glo) in HeLa TKO cells with exogenous caspase-2 expression; details: for EC50: Homo sapiens, HeLa, ATP-based viability, HeLa TKO cells with exogenous caspase-2, titrated compound
Description: Specific chemical compounds are powerful tools for dissecting target-related signaling mechanisms in biological contexts ([Beck et al., 2022]; [Zhang et al., 2012]). Prompted by this notion and possibly to identify a compound that could activate the PIDDosome, we designed a cell death-based high-throughput chemical screen in HeLa cells, in which a triple knockout of CASP2, CASP3, and GSDMD were constructed. CASP3 and GSDMD deficiency served as the background to minimize compound-induced nonspecific cytotoxicity and undesired pyroptosis. Using the triple knockout cells as the control, additional expression of exogenous caspase-2 allows the identification of compounds that can specifically activate the caspase-2-BID pathway and trigger apoptosis through caspase-7. […] In accordance with the apoptosis induction, HUHS015 induced evident processing of caspase-2 expressed in the triple-knockout cells (Fig. 3B). This indicated activation of caspase-2 as the protease-deficient C320A mutant of caspase-2 was not processed upon HUHS015 treatment (Fig. 3B). Accordingly, expression of caspase-2 C320A rendered no cell death in response to HUHS015 treatment (Fig. 3B).
Figure 3. Chemical screen identifies HUHS015 as an agonist of human caspase-2. (A) Screen raw data and selectivity analyses of the compound plate containing HUHS015. The ATP-based viability data of both HeLa-CASP2^−/−CASP3^−/−GSDMD^−/− (TKO) (control group) and TKO cells with exogenous caspase-2 expression (experimental group) are shown. The ratios of the cell viability between the two groups are calculated with 3 as a cutoff for positive compound hit selection. (B) HUHS015-induced cell death depends on caspase-2 activity. HeLa TKO cells expressing WT or enzymatically deficient C320A mutant of caspase-2 were treated with HUHS015. ATP-based cell viability and immunoblotting of caspase-2 cleavage are shown. (C and F) The structures and potencies of HUHS15 (C) and its optimized derivative HUHS15-036 (F). HeLa TKO cells with exogenous caspase-2 expression were treated with titrated compounds. The ATP-based viability data were plotted with compound concentration for EC50 calculation. (D) BID is required for HUHS15-induced caspase-2-dependent cell death. […] Processing of caspase-2, -3, and -7 was analyzed by immunoblotting. […] ATP-based cell viability in panels (B and D) is expressed as mean ± s.d. from three technical replicates. […]
Cell viability was measured by the ATP assay using the CellTiter-Glo® Luminescent Cell Viability Assay kit (Promega).
Drug-related Screening Library (25 × 384-well plate, more than 7,000 compounds) was used for the chemical screen in the TKO HeLa cells rescued with exogenous caspase-2 expression. […] After treatment for 12 h, the cell viability was measured by the ATP assay. […]

[2] = system: caspase-2-expressing HeLa cells with BID, RAIDD or PIDD1 knockout; assay: Compound-induced caspase-2 activation and cell death in pathway-gene knockout HeLa cells; assay type: cell-based, human
Description: Figure 3. Chemical screen identifies HUHS015 as an agonist of human caspase-2. (A) Screen raw data and selectivity analyses of the compound plate containing HUHS015. The ATP-based viability data of both HeLa-CASP2^−/−CASP3^−/−GSDMD^−/− (TKO) (control group) and TKO cells with exogenous caspase-2 expression (experimental group) are shown. The ratios of the cell viability between the two groups are calculated with 3 as a cutoff for positive compound hit selection. (B) HUHS015-induced cell death depends on caspase-2 activity. HeLa TKO cells expressing WT or enzymatically deficient C320A mutant of caspase-2 were treated with HUHS015. ATP-based cell viability and immunoblotting of caspase-2 cleavage are shown. (C and F) The structures and potencies of HUHS15 (C) and its optimized derivative HUHS15-036 (F). HeLa TKO cells with exogenous caspase-2 expression were treated with titrated compounds. The ATP-based viability data were plotted with compound concentration for EC50 calculation. (D) BID is required for HUHS15-induced caspase-2-dependent cell death. WT and BID^−/− (KO) HeLa TKO cells with exogenous caspase-2 expression, as well as the knockout cells rescued with WT or D60E mutant of BID were treated with HUHS15. ATP-based cell viability and immunoblotting detecting caspase-2 and BID processing are shown. (E) HUHS15-induced caspase-3/7 activation relies on caspase-9 but is independent of PIDDosome. CASP2^−/− (KO) HeLa cells with exogenous caspase-2 expression in the indicated knockout background were treated with HUHS15. Processing of caspase-2, -3, and -7 was analyzed by immunoblotting. (G) Top gRNA hits from the genetic screen of HUHS015-36-induced apoptosis in HeLa TKO cells with exogenous caspase-2 expression. In all the data, indicated cells were treated with the compound for 5 h (for HUHS015-36) or 9 h (for HUHS015) before cell viability measurement and immunoblotting analyses. ATP-based cell viability in panels (B and D) is expressed as mean ± s.d. from three technical replicates. Data in panels (B–F) are representative of three independent experiments. […]

| Structure (SMILES) | EC50 ([1]; read-out: EC50, caspase-2-mediated cell death) | treated cells that underwent apoptosis ([1]; pool of CRISPR-Cas9 mutagenized caspase-2-expressing TKO HeLa cells, genetic screen) | caspase-2 activation and cell death ([2]; PIDD1 or RAIDD knockout, 5 h) | EC50 ([1]; read-out: EC50 (half-maximal effective concentration), caspase-2-mediated cell death) | cell death ([2]; BID knockout) | caspase-2 processing and caspase-3/7 activation ([2]; RAIDD knockout) |
| --- | --- | --- | --- | --- | --- | --- |
| Cc1cccc2nc(-n3nc4c(c3O)CCCC4)[nH]c12 [HUHS015-36] | 0.06 µM | Over 95% | neither PIDD1 nor RAIDD deficiency had any effects | – | – | – |
| Cc1ccc2nc(-n3nc(C)c(Cc4ccccc4)c3O)[nH]c2c1 [HUHS015] | – | – | – | ~6.8 µM | diminished | could still induce caspase-2 processing as well as caspase-3/7 activation |
